Results: patent publication US10023590B2, “Substituted pyridine compounds having herbicidal activity” (BASF SE, priority 2014, dated 2018)

Key:
Format in all cases: in vivo
Amaranthus retroflexus = test: Greenhouse post-emergence herbicidal activity, AMARE; settings: AMARE; for pest or weed control at 125 g/ha: 0.125 kg/ha; for pest or weed control at 2000 g/ha: 2 kg/ha, scale 0 to 100, read-out: Herbicidal activity
Text: (§1) The culture containers used were plastic flowerpots containing loamy sand with approximately 3.0% of humus as the substrate. The seeds of the test plants were sown separately for each species.
(§2) For the post-emergence treatment, the test plants were first grown to a height of 3 to 15 cm, depending on the plant habit, and only then treated with the active ingredients which had been suspended or emulsified in water. For this purpose, the test plants were either sown directly and grown in the same containers, or they were first grown separately as seedlings and transplanted into the test containers a few days prior to treatment.
(§3) Depending on the species, the plants were kept at 10-25° C. or 20-35° C., respectively.
(§4) The test period extended over 2 to 4 weeks. During this time, the plants were tended, and their response to the individual treatments was evaluated.
(§5) Evaluation was carried out using a scale from 0 to 100. 100 means no emergence of the plants, or complete destruction of at least the aerial moieties, and 0 means no damage, or normal course of growth. A good herbicidal activity is given at values of at least 70 and a very good herbicidal activity is given at values of at least 85.

Cirsium arvense = test: Greenhouse post-emergence herbicidal activity, CIRAR; settings: CIRAR, scale 0 to 100
Text: as §1, §2, §3, §4, §5

Digitaria sanguinalis = test: Greenhouse post-emergence herbicidal activity, DIGSA; settings: scale 0 to 100
Text: as §1, §2, §3, §4, §5

Kochia scoparia = test: Greenhouse post-emergence herbicidal activity, KCHSC; settings: scale 0 to 100
Text: as §1, §2, §3, §4, §5

Oryza sativa = test: Greenhouse post-emergence herbicidal activity on crop ORYSA (rice); settings: ORYSA (rice, crop), scale 0 to 100
Text: as §1, §2, §3, §4, §5

Setaria faberi = test: Greenhouse post-emergence herbicidal activity, SETFA; settings: 2 kg/ha, scale 0 to 100
Text: as §1, §2, §3, §4, §5

Zea mays = test: Greenhouse post-emergence herbicidal activity on crop ZEAMX (corn, maize); set-up: key: 0 = no damage/normal growth, 100 = no emergence or complete destruction; settings: ZEAMX (corn, crop), scale 0 to 100
Text: as §1, §2, §3, §4, §5

Abutilon theophrasti = test: Greenhouse post-emergence herbicidal activity, ABUTH; settings: ABUTH
Text: as §1, §2, §3, §4, §5

Chenopodium album = test: Greenhouse post-emergence herbicidal activity, CHEAL; settings: scale 0 to 100; for pest or weed control at 31 g/ha: 0.031 kg/ha; for pest or weed control at 63 g/ha: 0.063 kg/ha; for pest or weed control at 125 g/ha: 0.125 kg/ha
Text: as §1, §2, §3, §4, §5

Polygonum persicaria = test: Greenhouse post-emergence herbicidal activity, POLPE; settings: 0.063 kg/ha, scale 0 to 100
Text: as §1, §2, §3, §4, §5

Stellaria media = test: Greenhouse post-emergence herbicidal activity, STEME; settings: scale 0 to 100
Text: as §1, §2, §3, §4, §5

Setaria viridis = test: Greenhouse post-emergence herbicidal activity, SETVI; settings: 2 kg/ha, scale 0 to 100
Text: as §1, §2, §3, §4, §5

Ambrosia artemisiifolia = test: Greenhouse post-emergence herbicidal activity, AMBEL; settings: scale 0 to 100
Text: as §1, §2, §3, §4, §5

Echinocloa crus-galli = test: Greenhouse post-emergence herbicidal activity, ECHCG; settings: Echinochloa crus-galli, ECHCG, 2 kg/ha, scale 0 to 100, read-out: Herbicidal activity
Text: as §1, §2, §3, §4, §5

Veronica arvensis = test: Greenhouse post-emergence herbicidal activity, VERAR; settings: scale 0 to 100
Text: as §1, §2, §3, §4, §5

SMILES | pest or weed control at 125 g/ha (Amaranthus retroflexus; scale 0 to 100) [%] | pest or weed control at 2000 g/ha (Amaranthus retroflexus) [%] | Herbicidal activity (Kochia scoparia; 0.031 kg/ha) | Herbicidal activity (Kochia scoparia; 0.063 kg/ha) | Herbicidal activity (Oryza sativa; 0.031 kg/ha) | Herbicidal activity (Oryza sativa; 0.063 kg/ha) | Herbicidal activity (Zea mays; 0.031 kg/ha) | Herbicidal activity (Zea mays; 0.063 kg/ha) | Herbicidal activity (Zea mays; 0.125 kg/ha) | pest or weed control at 31 g/ha (Chenopodium album) [%] | pest or weed control at 63 g/ha (Chenopodium album) [%] | pest or weed control at 125 g/ha (Chenopodium album) [%] | Herbicidal activity (Oryza sativa; 0.125 kg/ha) | Herbicidal activity (Stellaria media; 0.125 kg/ha) | Herbicidal activity (Setaria viridis) | other results
CS(=O)(=O)Nc1ccc(Cl)c(C2=C(O)c3ncccc3CS2(=O)=O)c1Cl [I-5, N-[2,4-dichloro-3-(8-hydroxy-6,6-dioxo-5H-thiopyrano[4,3-b]pyridin-7-yl)phenyl]methanesulfonamide] | 95 | 98 | 90 | 95 | 25 | 35 | 0 | 0 | 0 |  |  |  |  |  |  | pest or weed control at 31 g/ha (Amaranthus retroflexus; 0.031 kg/ha, scale 0 to 100): 75%; pest or weed control at 63 g/ha (Amaranthus retroflexus; 0.063 kg/ha, scale 0 to 100): 95%; pest or weed control at 31 g/ha (Cirsium arvense; 0.031 kg/ha): 75%; pest or weed control at 125 g/ha (Cirsium arvense; 0.125 kg/ha): 90%; Herbicidal activity (Digitaria sanguinalis; 0.063 kg/ha): 90; Herbicidal activity (Digitaria sanguinalis; 0.125 kg/ha): 95; Herbicidal activity (Setaria faberi): 100
CN(c1ccc(Cl)c(C2=C(O)c3ncccc3C(C)(C)S2(=O)=O)c1Cl)S(C)(=O)=O [I-7, N-[2,4-dichloro-3-(8-hydroxy-5,5-dimethyl-6,6-dioxo-thiopyrano[4,3-b]pyridin-7-yl)phenyl]-N-methyl-methanesulfonamide] | 90 |  |  |  | 0 | 0 | 0 | 0 | 20 | 95 | 85 | 98 | 10 | 100 |  | pest or weed control at 250 g/ha (Abutilon theophrasti; 0.25 kg/ha, scale 0 to 100): 100%; pest or weed control at 250 g/ha (Chenopodium album; 0.25 kg/ha): 100%; Herbicidal activity (Oryza sativa; 0.25 kg/ha): 15; Herbicidal activity (Polygonum persicaria): 80; Herbicidal activity (Stellaria media; 0.063 kg/ha): 100; Herbicidal activity (Stellaria media; 0.25 kg/ha): 100
CC(C)N(c1c(Cl)ccc(C2=C(O)c3ncccc3CS2(=O)=O)c1Cl)S(C)(=O)=O [I-10, N-[2,6-dichloro-3-(8-hydroxy-6,6-dioxo-5H-thiopyrano[4,3-b]pyridin-7-yl)phenyl]-N-isopropyl-methanesulfonamide] | 70 | 100 |  |  | 10 | 10 |  |  | 10 | 85 | 85 | 90 | 15 |  | 98 | pest or weed control at 2000 g/ha (Abutilon theophrasti; 2 kg/ha, scale 0 to 100, read-out: Herbicidal activity): 98%
Cc1c(C2=C(O)c3ncccc3C(C)(C)S2(=O)=O)cccc1N(C)S(C)(=O)=O [I-14, N-[3-(8-hydroxy-5,5-dimethyl-6,6-dioxo-thiopyrano[4,3-b]pyridin-7-yl)-2-methyl-phenyl]-N-methyl-methanesulfonamide] |  | 100 | 95 | 100 | 0 | 0 | 15 | 20 | 35 | 98 |  | 100 | 10 | 100 | 100 | Herbicidal activity (Ambrosia artemisiifolia; 0.063 kg/ha): 100; Herbicidal activity (Ambrosia artemisiifolia; 0.125 kg/ha): 100; pest or weed control at 2000 g/ha (Echinocloa crus-galli): 98%; Herbicidal activity (Veronica arvensis; 0.031 kg/ha): 100; Herbicidal activity (Veronica arvensis; 0.063 kg/ha): 100
